{"source": "patent US11123323B2", "about": "“Monoterpenes for treating respiratory disorders, in particular bronchopulmonary disorders” (Maria Clemetine Martin Klosterfrau Vertriebsqesellschaft MBH, priority 2008, dated 2021)", "tested_on": "smokers with COPD (GOLD II to III)", "test": "Placebo-controlled double-blind study of additional therapy with 1,8-cineol in smokers with COPD", "format": "in vivo, human", "experimental": "In a placebo-controlled double-blind study, the effect of an additional therapy with 1,8-cineol in the form of capsules which dissolve in the small intestine (Soledum® capsules, 3×200 mg/day, oral) on exacerbation rate and lung function was examined in 3 winter months of two successive years using 242 smokers with COPD (GOLD II to III)."}
{"smiles": "CC12CCC(CC1)C(C)(C)O2", "note": "[1,8-cineol, 1,3,3-trimethyl-2-oxabicyclo-[2.2.2]-octane]", "values": [{"measurement": "St. George's Respiratory Questionnaire (SGRQ), change in the verum group", "setting": "3×200 mg/day, oral", "value": "−10.4", "unit": "units"}, {"measurement": "lung function (FEV1), change in the verum group", "setting": "3×200 mg/day, oral", "value": "+5.1%"}, {"measurement": "reduction in the exacerbation rate compared to the placebo group", "setting": "3×200 mg/day, oral, 3 winter months of two successive years, 242 smokers", "value": "−38.5", "unit": "%"}, {"measurement": "further reduction of the frequency of exacerbations beyond known combined therapies", "setting": "additional therapy with capsules which dissolve in the small intestine", "value": 25, "unit": "%"}]}
